Measurements as given in patent US10131652B2, “Pyrimidinyloxy benzene derivatives as herbicides” (E. I. DU PONT DE NEMOURS AND COMPANY, priority 2014, dated 2018).

Assays:
Format in all cases: in vivo
[1] = test system: galium (catchweed bedstraw, Galium aparine); test: Test B postemergence plant response
Outline: (§1)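 Injury was assessed visually about 10 days after treatment, scored from 0 (no effect) to 100 (complete control) by comparison with untreated controls. Test chemicals had been applied postemergence to potted plants at the one- to two-leaf stage, grown in loam soil and sand in a greenhouse.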

[2] = test system: blackgrass (Alopecurus myosuroides); test: Test B postemergence plant response
Outline: as §1

[3] = test system: barnyardgrass (Echinochloa crus-galli); test: Test C flooded paddy test plant response; settings: Flood, 250 g ai/ha; scale of 0 to 100 where 0 is no effect and 100 is complete control; 13 to 15 days
Outline: (§2)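 Flooded-pot format, 3 cm water over soil maintained for the test duration; test compounds dispensed into the water at the 2-leaf stage. Greenhouse holding 13 to 15 days. Plants evaluated visually relative to untreated controls, 0 meaning no effect and 100 complete control.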

[4] = test system: ducksalad (Heteranthera limosa); test: Test C flooded paddy test plant response; settings: Flood, 250 g ai/ha; scale of 0 to 100 where 0 is no effect and 100 is complete control; 13 to 15 days
Outline: as §2

[5] = test system: small-flower umbrella sedge (Cyperus difformis); test: Test C flooded paddy test plant response; settings: Flood, 250 g ai/ha; scale of 0 to 100 where 0 is no effect and 100 is complete control; 13 to 15 days
Outline: as §2

rice (Oryza sativa) = test: Test C flooded paddy test plant response; settings: Flood, 250 g ai/ha; scale of 0 to 100 where 0 is no effect and 100 is complete control; 13 to 15 days
Outline: as §2

[6] = test system: barnyardgrass (Echinochloa crus-galli); test: Test B pre-/postemergence plant response
Outline: (§3)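 Greenhouse pots, loam/sand soil; compound formulated with surfactant in non-phytotoxic solvent. Preemergence soil spray and postemergence spray at 1–2 leaf stage run simultaneously. Visual injury, 0–100, about 10 days post-treatment.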

[7] = test system: wheat (Triticum aestivum); test: Test B pre-/postemergence plant response
Outline: as §3

[8] = test system: ragweed (common ragweed, Ambrosia elatior); test: Test B pre-/postemergence plant response
Outline: as §3

[9] = test system: giant foxtail (Setaria faberii); test: Test B pre-/postemergence plant response
Outline: as §3

kochia (Kochia scoparia) = test: Test B pre-/postemergence plant response
Outline: as §3

[10] = test system: Italian ryegrass (Lolium multiflorum); test: Test B pre-/postemergence plant response
Outline: as §3

[11] = test system: pigweed (Amaranthus retroflexus); test: Test B pre-/postemergence plant response
Outline: as §3

corn (Zea mays) = test: Test B pre-/postemergence plant response
Outline: as §3

[12] = 125 g ai/ha, postemergence, 0 to 100 scale, 0 no effect, 100 complete control
[13] = Postemergence, 500 g ai/ha, 0 to 100 scale (0 no effect, 100 complete control)
[14] = Preemergence, 125 g ai/ha, 0 to 100 scale (0 no effect, 100 complete control)
[15] = Preemergence, 500 g ai/ha, 0 to 100 scale where 0 is no effect and 100 is complete control
[16] = 31 g ai/ha, Postemergence, 0 to 100 scale, 0 no effect, 100 complete control
[17] = 31 g ai/ha, Preemergence, 0 to 100 scale where 0 is no effect and 100 is complete control

Structure (SMILES)	Plant response rating, Galium [1, 12]	Plant response rating, Blackgrass [2, 12]	Barnyardgrass plant response rating [3]	Ducksalad plant response rating [4]	Sedge, Umbrella plant response rating [5]	Rice plant response rating (rice (Oryza sativa))	Plant response rating, Barnyardgrass [6, 12]	Barnyardgrass plant response rating [6, 14]	Plant response rating, Wheat [7, 12]	Plant response rating, Ragweed [8, 12]	Ragweed plant response rating [8, 14]	Plant response rating, Foxtail, Giant [9, 12]	Foxtail, Giant plant response rating [9, 14]	Plant response rating, Kochia (kochia (Kochia scoparia); [12])	Kochia plant response rating (kochia (Kochia scoparia); [14])	Plant response rating, Ryegrass, Italian [10, 12]	Ryegrass, Italian plant response rating [10, 14]	Plant response rating, Pigweed [11, 12]	Pigweed plant response rating [11, 14]	Plant response rating, Corn (corn (Zea mays); [12])	other results
FC(F)(F)c1csc(-c2ccccc2Oc2ncc(Cl)cn2)n1 [Compound 137]	0	0	0	20	0	0	0	0	0	0	0	0	0	0	0	0	0	30	0	0	Plant response rating, Galium [1, 13]: 20; Plant response rating, Blackgrass [2, 13]: 0; Plant response rating, Barnyardgrass [6, 13]: 10; Plant response rating, Barnyardgrass [6, 15]: 10; Plant response rating, Wheat [7, 13]: 0; Plant response rating, Ragweed [8, 13]: 0; Plant response rating, Ragweed [8, 15]: 0; Plant response rating, Foxtail, Giant [9, 13]: 20; Plant response rating, Foxtail, Giant [9, 15]: 0; Plant response rating, Kochia (kochia (Kochia scoparia); [13]): 60; Plant response rating, Kochia (kochia (Kochia scoparia); [15]): 10; Plant response rating, Ryegrass, Italian [10, 13]: 0; Plant response rating, Ryegrass, Italian [10, 15]: 0; Plant response rating, Pigweed [11, 13]: 90; Plant response rating, Pigweed [11, 15]: 20; Plant response rating, Corn (corn (Zea mays); [13]): 20
FC(F)(F)c1csc(-c2ccccc2Oc2ncc(I)cn2)n1 [Compound 138]	0	0	0	20	0	0	0	0	0	0	0	0	0	0	0	0	0	0	0	0	Plant response rating, Galium [1, 13]: 0; Plant response rating, Blackgrass [2, 13]: 0; Plant response rating, Barnyardgrass [6, 13]: 0; Plant response rating, Barnyardgrass [6, 15]: 0; Plant response rating, Wheat [7, 13]: 0; Plant response rating, Ragweed [8, 13]: 0; Plant response rating, Ragweed [8, 15]: 0; Plant response rating, Foxtail, Giant [9, 13]: 0; Plant response rating, Foxtail, Giant [9, 15]: 0; Plant response rating, Kochia (kochia (Kochia scoparia); [13]): 0; Plant response rating, Kochia (kochia (Kochia scoparia); [15]): 0; Plant response rating, Ryegrass, Italian [10, 13]: 0; Plant response rating, Ryegrass, Italian [10, 15]: 0; Plant response rating, Pigweed [11, 13]: 0; Plant response rating, Pigweed [11, 15]: 0; Plant response rating, Corn (corn (Zea mays); [13]): 0
FC(F)(F)c1csc(-c2ccccc2Oc2ncc(Br)cn2)n1 [Compound 139]	0	0	0	30	0	20	0	0	0	0	0	0	0	0	0	0	0	0	0	0	Plant response rating, Galium [1, 13]: 0; Plant response rating, Blackgrass [2, 13]: 0; Plant response rating, Barnyardgrass [6, 13]: 0; Plant response rating, Barnyardgrass [6, 15]: 0; Plant response rating, Wheat [7, 13]: 0; Plant response rating, Ragweed [8, 13]: 0; Plant response rating, Ragweed [8, 15]: 0; Plant response rating, Foxtail, Giant [9, 13]: 0; Plant response rating, Foxtail, Giant [9, 15]: 0; Plant response rating, Kochia (kochia (Kochia scoparia); [13]): 0; Plant response rating, Kochia (kochia (Kochia scoparia); [15]): 0; Plant response rating, Ryegrass, Italian [10, 13]: 0; Plant response rating, Ryegrass, Italian [10, 15]: 0; Plant response rating, Pigweed [11, 13]: 0; Plant response rating, Pigweed [11, 15]: 0; Plant response rating, Corn (corn (Zea mays); [13]): 0
O=Cc1cc(-c2ccccc2Oc2ncc(Cl)cn2)co1 [Compound 140]	0	0	0	0	0	0	0	0	0	0	0	0	0	0	0	0	0	0	0	0	Plant response rating, Blackgrass [2, 16]: 0; Plant response rating, Barnyardgrass [6, 16]: 0; Plant response rating, Barnyardgrass [6, 17]: 0; Plant response rating, Ragweed [8, 17]: 0; Plant response rating, Foxtail, Giant [9, 16]: 0; Plant response rating, Foxtail, Giant [9, 17]: 0; Plant response rating, Kochia (kochia (Kochia scoparia); [17]): 0; Plant response rating, Ryegrass, Italian [10, 17]: 0; Plant response rating, Pigweed [11, 17]: 0; Plant response rating, Corn (corn (Zea mays); [16]): 0
FC(F)c1cc(-c2ccccc2Oc2ncc(Cl)cn2)co1 [Compound 141]	0	0	0	30	0	0	0	0	0	0	0	0	0	0	0	0	0	20	0	30	Plant response rating, Blackgrass [2, 16]: 0; Plant response rating, Barnyardgrass [6, 16]: 0; Plant response rating, Barnyardgrass [6, 17]: 0; Plant response rating, Ragweed [8, 17]: 0; Plant response rating, Foxtail, Giant [9, 16]: 0; Plant response rating, Foxtail, Giant [9, 17]: 0; Plant response rating, Kochia (kochia (Kochia scoparia); [17]): 0; Plant response rating, Ryegrass, Italian [10, 17]: 0; Plant response rating, Pigweed [11, 17]: 0; Plant response rating, Corn (corn (Zea mays); [16]): 0
FC(F)(F)C(F)(F)c1cc(-c2ccccc2Oc2ncc(Cl)cn2)no1 [Compound 142]	10	0	0	0	0	0	0	0	0	0	0	0	20	20	0	0	0	20	0	20	Plant response rating, Blackgrass [2, 16]: 0; Plant response rating, Barnyardgrass [6, 16]: 0; Plant response rating, Barnyardgrass [6, 17]: 0; Plant response rating, Ragweed [8, 17]: 0; Plant response rating, Foxtail, Giant [9, 16]: 0; Plant response rating, Foxtail, Giant [9, 17]: 0; Plant response rating, Kochia (kochia (Kochia scoparia); [17]): 0; Plant response rating, Ryegrass, Italian [10, 17]: 0; Plant response rating, Pigweed [11, 17]: 0; Plant response rating, Corn (corn (Zea mays); [16]): 0
